Assay results: PubChem BioAssay AID330 (DTP/NCI, 2004)
Several values for one entry are separate records, joined by “and”; a condition that tells them apart may be missing. Equal values may be shown once. Inconclusive results and toxic doses are left out.

System: P388 leukemia ip, CD2F1 mice, survival T/C
Assay: NCI In Vivo Anticancer Drug Screen. Data for tumor model P388 Leukemia (intraperitoneal) in CD2F1 (CDF1) mice
Details: endpoint: median survival time, higher = longer survival
Method in brief: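 Mice carrying the transplanted tumor received test compound or vehicle. Survival was recorded in each group, and the value is the treated-group measurement divided by that of the vehicle-treated control group.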

[1] = dose: 25.0 mg/kg/injection, schedule: Q04DX002 (ip), vehicle: saline with Tween-80
[2] = dose: 50.0 mg/kg/injection, schedule: Q04DX002 (ip), vehicle: saline with Tween-80
[3] = dose: 100.0 mg/kg/injection, schedule: Q04DX002 (ip), vehicle: saline with Tween-80

Cn1cnc2cc(N3CCCCC3)c(N)cc2c1=O
T/C (dose: 100.0 mg/kg/injection, schedule: Q04DX003 (ip), vehicle: Klucel (hydroxypropylcellulose) (HPC)): 107 % of control
T/C (dose: 200.0 mg/kg/injection, schedule: Q04DX003 (ip), vehicle: Klucel (hydroxypropylcellulose) (HPC)): 99 % of control
T/C (dose: 400.0 mg/kg/injection, schedule: Q04DX003 (ip), vehicle: Klucel (hydroxypropylcellulose) (HPC)): 102 % of control

COc1cc(C2c3cc4c(c(OC5OC(CO)C(O)C5O)c3CC3COC(=O)C32)OCO4)cc(OC)c1OC (stereo not given)
T/C (dose: 100.0 mg/kg/injection, schedule: Q01DX001 (ip), vehicle: Klucel (hydroxypropylcellulose) (HPC)): 108 % of control
T/C (dose: 200.0 mg/kg/injection, schedule: Q01DX001 (ip), vehicle: Klucel (hydroxypropylcellulose) (HPC)): 108 % of control
T/C (dose: 400.0 mg/kg/injection, schedule: Q01DX001 (ip), vehicle: Klucel (hydroxypropylcellulose) (HPC)): 113 % of control

O=C(/C=C/c1ccccc1)O[C@@H]1CC2CC1C[C@@H]2c1cnc[nH]1 (stereo not given in full)
T/C [1]: 98 % of control
T/C [2]: 100 % of control
T/C [3]: 99 % of control

NCCc1ccc(N)cc1
T/C (dose: 50.0 mg/kg/injection, schedule: Q01DX009 (ip), vehicle: saline): 100 % of control and 105 % of control
T/C (dose: 100.0 mg/kg/injection, schedule: Q01DX009 (ip), vehicle: saline): 100 % of control and 96 % of control
T/C (dose: 200.0 mg/kg/injection, schedule: Q01DX009 (ip), vehicle: saline): 86 % of control

c1ccc(Nc2nnc(-c3ccc4c(c3)OCO4)o2)cc1
T/C (dose: 50.0 mg/kg/injection, schedule: Q01DX005 (ip), vehicle: Klucel (hydroxypropylcellulose) (HPC)): 91 % of control
T/C (dose: 100.0 mg/kg/injection, schedule: Q01DX005 (ip), vehicle: Klucel (hydroxypropylcellulose) (HPC)): 92 % of control
T/C (dose: 200.0 mg/kg/injection, schedule: Q01DX005 (ip), vehicle: Klucel (hydroxypropylcellulose) (HPC)): 100 % of control

Cc1ccc(C(SCC(N)C(=O)O)(c2ccccc2)c2ccccc2)cc1 (stereo not given)
T/C (dose: 12.5 mg/kg/injection, schedule: Q01DX009 (ip), vehicle: saline with Tween-80): 186 % of control
T/C (dose: 25.0 mg/kg/injection, schedule: Q01DX009 (ip), vehicle: saline with Tween-80): 168 % of control
T/C (dose: 50.0 mg/kg/injection, schedule: Q04DX003 (ip), vehicle: saline with Tween-80): 177 % of control
T/C (dose: 100.0 mg/kg/injection, schedule: Q04DX003 (ip), vehicle: saline with Tween-80): 218 % of control
T/C (dose: 132.0 mg/kg/injection, schedule: Q04DX003 (ip), vehicle: saline with Tween-80): 195 % of control
T/C (dose: 200.0 mg/kg/injection, schedule: Q04DX003 (ip), vehicle: saline with Tween-80): 254 % of control and 272 % of control
T/C (dose: 300.0 mg/kg/injection, schedule: Q04DX003 (ip), vehicle: saline with Tween-80): 263 % of control

Cc1nc2[nH]c(=O)ccc2c(C)c1N
T/C [1]: 103 % of control
T/C [2]: 110 % of control
T/C [3]: 100 % of control

CCOC(CN(C)C)C(Cl)(Cl)Cl (stereo not given)
T/C (dose: 25.0 mg/kg/injection, schedule: Q01DX009 (ip), vehicle: Klucel (hydroxypropylcellulose) (HPC)): 103 % of control
T/C (dose: 50.0 mg/kg/injection, schedule: Q01DX009 (ip), vehicle: Klucel (hydroxypropylcellulose) (HPC)): 103 % of control
T/C (dose: 100.0 mg/kg/injection, schedule: Q01DX009 (ip), vehicle: Klucel (hydroxypropylcellulose) (HPC)): 88 % of control
T/C (dose: 200.0 mg/kg/injection, schedule: Q01DX009 (ip), vehicle: Klucel (hydroxypropylcellulose) (HPC)): 108 % of control

COC1NC(=S)N(C2CCCCC2)C1(C)C (stereo not given)
T/C (dose: 50.0 mg/kg/injection, schedule: Q01DX009 (ip), vehicle: suspension in saline): 97 % of control
T/C (dose: 100.0 mg/kg/injection, schedule: Q01DX009 (ip), vehicle: suspension in saline): 97 % of control
T/C (dose: 200.0 mg/kg/injection, schedule: Q01DX009 (ip), vehicle: suspension in saline): 100 % of control

CC(CCC(=O)O)(c1ccc(OC(=O)Nc2ccc(Br)cc2)cc1)c1ccc(OC(=O)Nc2ccc(Br)cc2)cc1
T/C (dose: 50.0 mg/kg/injection, schedule: Q01DX005 (ip), vehicle: saline with Tween-80): 102 % of control
T/C (dose: 100.0 mg/kg/injection, schedule: Q01DX005 (ip), vehicle: saline with Tween-80): 97 % of control
T/C (dose: 200.0 mg/kg/injection, schedule: Q01DX005 (ip), vehicle: saline with Tween-80): 100 % of control

Nc1ccc(C(=O)Nc2ccc3cc(S(=O)(=O)O)cc(S(=O)(=O)O)c3c2)cc1
T/C (dose: 50.0 mg/kg/injection, schedule: Q01DX005 (ip), vehicle: saline): 103 % of control
T/C (dose: 100.0 mg/kg/injection, schedule: Q01DX005 (ip), vehicle: saline): 99 % of control
T/C (dose: 200.0 mg/kg/injection, schedule: Q01DX005 (ip), vehicle: saline): 100 % of control

O=C(CNC(=O)NCc1ccco1)N/N=C/c1ccccc1O
T/C (dose: 50.0 mg/kg/injection, schedule: Q01DX009 (ip), vehicle: saline with Tween-80): 89 % of control
T/C (dose: 100.0 mg/kg/injection, schedule: Q01DX009 (ip), vehicle: saline with Tween-80): 96 % of control
